From article PMC6216040, “Repurposing of an old drug: In vitro and in vivo efficacies of buparvaquone against Echinococcus multilocularis” (International Journal for Parasitology: Drugs and Drug …, 2018)
Like-named read-outs stand apart in the source and are kept apart here.

System: E. multilocularis metacestodes
Test: PGI-assay: drug-induced damage on in vitro cultured metacestodes (Pathogen Box screening cascade and EC50)
Type: cell-based, Echinococcus multilocularis
Conditions: for PGI release, % of the Tx-100 control, 5d / PGI release, % of the Tx-100 control, 12d / cytotoxicity at 10 µM: 10 µM, singlets; for cytotoxicity at 10 µM / PGI release, % of Tx-100 control at 10 µM: Echinococcus multilocularis
[1] = confirmatory screening at 10 µM in triplicates, 5 days of incubation, values as % of Tx-100 control
[2] = confirmatory screening at 10 µM in triplicates, 12 days of incubation, values as % of Tx-100 control
[3] = 120 h, 5 days of incubation, read-out: PGI release, % of the Tx-100 control, 5d
[4] = 288 h, 12 days of incubation, read-out: PGI release, % of the Tx-100 control, 12d

c1ccc(Oc2ccc(-c3cc(N4CCNCC4)[nH]n3)cc2)cc1 [MMV687706]
PGI release, % of the Tx-100 control, 5d (5 days of incubation): -0.18% | PGI release, % of the Tx-100 control, 12d (12 days of incubation): 0.70%

O=C1O[C@@H](CO)CN1c1cc(F)c(C2=CCN(Cc3ccccc3)CC2)c(F)c1 [MMV687729]
PGI release, % of the Tx-100 control, 5d (5 days of incubation): -0.40% | PGI release, % of the Tx-100 control, 12d (12 days of incubation): -0.63%

CCCCOC(=O)Nc1cc2[nH]c(C3CCCCC3)nc2cc1N1CCCC1 [MMV687730]
PGI release, % of Tx-100 control, average, 5d (1 µM, triplicates, 5 days of incubation): 3.65% | PGI release, % of Tx-100 control, average, 12d (1 µM, triplicates, 12 days of incubation): -3.14% | activity in the screen at 10 μM (confirmed in triplicates, >20% relative PGI release) (10 μM, 5 and 12 days): active | PGI release, % of the Tx-100 control, 5d (5 days of incubation): 5.43% | PGI release, % of the Tx-100 control, 12d (12 days of incubation): 56.57% | PGI release, % of Tx-100 control, average, 5d [1]: 22.60% | PGI release, % of Tx-100 control, average, 12d [2]: 45.66%

Cc1cc(OCC(=O)NCc2ccccc2)c2cc(Br)ccc2n1 [MMV687747]
PGI release, % of the Tx-100 control, 5d (5 days of incubation): -0.47% | PGI release, % of the Tx-100 control, 12d (12 days of incubation): 1.30%

c1ccc(C[C@@H]2CN(c3nccc(Oc4ccc(-n5ccnc5)cc4)n3)CCN2)cc1 [MMV687749]
PGI release, % of the Tx-100 control, 5d (5 days of incubation): 5.87% | PGI release, % of the Tx-100 control, 12d (12 days of incubation): 6.61%

c1ccc(Oc2ccc(-c3cc(C4CCOCC4)[nH]n3)cc2)cc1 [MMV687762]
PGI release, % of the Tx-100 control, 5d (5 days of incubation): -1.81% | PGI release, % of the Tx-100 control, 12d (12 days of incubation): 0.46%

Cc1cnc(N2CCN[C@@H](Cc3ccccc3)C2)nc1Oc1ccc(-n2ccnc2)cc1 [MMV687765]
PGI release, % of the Tx-100 control, 5d (5 days of incubation): 4.75% | PGI release, % of the Tx-100 control, 12d (12 days of incubation): 6.17%

CC1(C)OB(O)c2ccc(C3=NOC(c4cc(Cl)c(F)c(Cl)c4)(C(F)(F)F)C3)cc21 (stereo not drawn) [MMV687775]
PGI release, % of the Tx-100 control, 5d (5 days of incubation): 11.08% | PGI release, % of the Tx-100 control, 12d (12 days of incubation): -0.22%

Cc1cc(C2=NOC(c3cc(Cl)c(F)c(Cl)c3)(C(F)(F)F)C2)ccc1C(=O)NCc1ccc2c(c1)C(C)(C)OB2O (stereo not drawn) [MMV687776]
PGI release, % of the Tx-100 control, 5d (5 days of incubation): 0.60% | PGI release, % of the Tx-100 control, 12d (12 days of incubation): 2.49%

CC1(C)Cc2c(c(N3CCOCC3)nc3snc(Br)c23)CO1 [MMV687794]
PGI release, % of the Tx-100 control, 5d (5 days of incubation): -0.77% | PGI release, % of the Tx-100 control, 12d (12 days of incubation): -1.36%

NCC[C@H](O)C(=O)N[C@@H]1C[C@H](N)[C@@H](O[C@H]2O[C@H](CN)[C@@H](O)[C@H](O)[C@H]2O)[C@H](O)[C@H]1O[C@H]1O[C@H](CO)[C@@H](O)[C@H](N)[C@H]1O [MMV687796, Amikacin, reference compound]
cytotoxicity at 10 µM [3]: -1.34% | cytotoxicity at 10 µM [4]: -4.62%

CC(C)/N=c1\cc2n(-c3ccc(Cl)cc3)c3ccccc3nc-2cc1Nc1ccc(Cl)cc1 [MMV687800, Clofazimine, reference compound]
cytotoxicity at 10 µM [3]: 26.6% | PGI release, % of Tx-100 control at 10 µM (120 h, confirmatory screening at 10 µM in triplicates, 5 days of incubation, values as % of Tx-100 control, read-out: PGI release, % of Tx-100 control, average, 5d): -0.59% | cytotoxicity at 10 µM [4]: 65.6% | PGI release, % of Tx-100 control at 10 µM (288 h, confirmatory screening at 10 µM in triplicates, 12 days of incubation, values as % of Tx-100 control, read-out: PGI release, % of Tx-100 control, average, 12d): 3.89%

CC[C@@H](CO)NCCN[C@@H](CC)CO [MMV687801, Ethambutol, reference compound]
cytotoxicity at 10 µM [3]: -0.84% | cytotoxicity at 10 µM [4]: 0.29%

CC(=O)NC[C@H]1CN(c2ccc(N3CCOCC3)c(F)c2)C(=O)O1 [MMV687803, Linezolid, reference compound]
cytotoxicity at 10 µM [3]: -0.58% | cytotoxicity at 10 µM [4]: 0.38%

CN1CCN(CCCOc2ncc(Nc3ncc(-c4ccc(C(F)(F)F)c(F)c4)nc3C(N)=O)cn2)CC1 [MMV687812]
PGI release, % of the Tx-100 control, 5d (5 days of incubation): 18.86% | PGI release, % of the Tx-100 control, 12d (12 days of incubation): 22.66% | PGI release, % of Tx-100 control, average, 5d [1]: 3.65% | PGI release, % of Tx-100 control, average, 12d [2]: 4.79%

O=C1O[C@@H](COc2ccon2)CN1c1cc(F)c(C2=CCN(Cc3ccccc3)CC2)c(F)c1 [MMV687813]
PGI release, % of the Tx-100 control, 5d (5 days of incubation): -0.66% | PGI release, % of the Tx-100 control, 12d (12 days of incubation): -1.17%

Cc1cccc(-c2nc(Nc3ccncn3)c3sccc3n2)n1 [MMV688122]
PGI release, % of the Tx-100 control, 5d (5 days of incubation): 0.14% | PGI release, % of the Tx-100 control, 12d (12 days of incubation): 95.49% | PGI release, % of Tx-100 control, average, 5d [1]: -0.80% | PGI release, % of Tx-100 control, average, 12d [2]: -0.86%

CCc1ccc(S(=O)(=O)Nc2cc(CN3CCN(CCC(C)C)CC3)ccc2C)cc1 [MMV688124]
PGI release, % of the Tx-100 control, 5d (5 days of incubation): -0.0233% | PGI release, % of the Tx-100 control, 12d (12 days of incubation): -0.17%

CCCc1ccc(S(=O)(=O)Nc2ccc(CN3CCN(CC4CC4)CC3)cc2)cc1 [MMV688125]
PGI release, % of the Tx-100 control, 5d (5 days of incubation): -0.08% | PGI release, % of the Tx-100 control, 12d (12 days of incubation): -1.69%

c1ccc(Oc2ccc(-c3cncc(-c4ccc5[nH]ccc5c4)n3)cc2)cc1 [MMV688178]
PGI release, % of the Tx-100 control, 5d (5 days of incubation): 0.34% | PGI release, % of the Tx-100 control, 12d (12 days of incubation): 0.47%

NC(N)=Nc1ccc(-c2ccc(-c3ccc(N=C(N)N)cc3Cl)o2)c(Cl)c1 [MMV688179]
PGI release, % of the Tx-100 control, 5d (5 days of incubation): -4.57% | PGI release, % of the Tx-100 control, 12d (12 days of incubation): 19.83%

Cc1nn(C)c(C)c1NS(=O)(=O)c1c(Cl)cc(-c2ccnc(N3CCNCC3)c2)cc1Cl [MMV688180]
PGI release, % of the Tx-100 control, 5d (5 days of incubation): -0.14% | PGI release, % of the Tx-100 control, 12d (12 days of incubation): 0.11%

C[C@]1(COc2ccc(N3CCC(Oc4ccc(OC(F)(F)F)cc4)CC3)cc2)Cn2cc([N+](=O)[O-])nc2O1 [MMV688262, Delaminid, reference compound]
PGI release, % of the Tx-100 control, 5d (5 days of incubation): -3.74% | PGI release, % of the Tx-100 control, 12d (12 days of incubation): -0.38%

COc1ccc(-c2cnc3cnc(-c4cccc(OC(C)C)c4)cn23)cc1 [MMV688270]
PGI release, % of the Tx-100 control, 5d (5 days of incubation): 0.02% | PGI release, % of the Tx-100 control, 12d (12 days of incubation): -0.02%

N=C(N)Nc1ccc(-c2ccc(-c3ccc(N=C(N)N)c(Cl)c3)o2)cc1Cl [MMV688271]
PGI release, % of the Tx-100 control, 5d (5 days of incubation): 9.82% | PGI release, % of the Tx-100 control, 12d (12 days of incubation): 13.94%

Nc1ccc2ncnc(Nc3ccc(OCc4cccc(F)c4)c(Cl)c3)c2c1 [MMV688273]
PGI release, % of the Tx-100 control, 5d (5 days of incubation): -1.47% | PGI release, % of the Tx-100 control, 12d (12 days of incubation): -4.16%

O=C(CN1CCOCC1)Nc1ccc2ncnc(Nc3ccc(OCc4cccc(F)c4)c(Cl)c3)c2c1 [MMV688274]
PGI release, % of the Tx-100 control, 5d (5 days of incubation): -0.59% | PGI release, % of the Tx-100 control, 12d (12 days of incubation): -0.94%

CC1=Nc2ccc(Cl)cc2C(O)(c2ccc(C)cc2)N1CCN1CCCCC1 (stereo not drawn) [MMV688279]
PGI release, % of the Tx-100 control, 5d (5 days of incubation): 0.73% | PGI release, % of the Tx-100 control, 12d (12 days of incubation): 1.56%

CN1CCN(S(=O)(=O)c2ccc(-c3ccc4c(Nc5ncc(Cl)cn5)ccnc4c3)cc2)CC1 [MMV688283]
PGI release, % of the Tx-100 control, 5d (5 days of incubation): 0.90% | PGI release, % of the Tx-100 control, 12d (12 days of incubation): -1.47%

COc1ccc(-c2nnc3ccc(-c4cccc(C(C)C)c4)cn23)cc1OC [MMV688313]
PGI release, % of the Tx-100 control, 5d (5 days of incubation): -0.11% | PGI release, % of the Tx-100 control, 12d (12 days of incubation): -3.88%

CC(=O)NC[C@H]1CN(c2ccc(-c3ccc(CNCc4cnn[nH]4)cc3)c(F)c2)C(=O)O1 [MMV688327, Radezolid, reference compound]
cytotoxicity at 10 µM [3]: -0.89% | cytotoxicity at 10 µM [4]: -1.52%

CC(=O)N1CCN(c2ccc(Oc3ccc(Cl)cc3O)cc2)CC1 [MMV688330]
PGI release, % of the Tx-100 control, 5d (5 days of incubation): -0.72% | PGI release, % of the Tx-100 control, 12d (12 days of incubation): -5.52%

Nc1nc(N)c2c3c(sc2n1)CN(Cc1ccccc1)CC3 [MMV688345]
PGI release, % of the Tx-100 control, 5d (5 days of incubation): -0.50% | PGI release, % of the Tx-100 control, 12d (12 days of incubation): -0.61%

COC(=O)c1ccc(F)cc1NS(=O)(=O)c1cccc(-c2cnn(Cc3ccccc3)c2)c1 [MMV688350]
PGI release, % of the Tx-100 control, 5d (5 days of incubation): -0.16% | PGI release, % of the Tx-100 control, 12d (12 days of incubation): 0.44%

O=C1[C@@H](Oc2ccccc2)[C@@H](c2ccc(Cl)cc2)N1CCn1cnc2c(NCc3ccccc3)ncnc21 [MMV688352]
PGI release, % of the Tx-100 control, 5d (5 days of incubation): 2.57% | PGI release, % of the Tx-100 control, 12d (12 days of incubation): 3.05%
